Where two headings read alike, the source gives them in different places.
Columns and labels:
[1] = system: CYP6M2, CYP6P3 and CYP6P9a; experiment: Pyrethroid metabolism (insecticide depletion), across CYP6M2, CYP6P3 and CYP6P9a; type: in vitro ADME, Anopheles gambiae and An. funestus; details: mean ± SD across CYP6M2, CYP6P3, CYP6P9a
Excerpt: (§1) In this study, the half maximal inhibitory concentration (IC50), which provides a value for inhibition of each P450 by each pyrethroid (also referred to as ‘binding affinity’), and the percentage depletion, which gives a value for metabolism of each pyrethroid by each P450 (also referred to as vulnerability to metabolic attack), were both included as parameters to establish a P450s structural activity relationship model. This model was used to understand both the chemistry of the pyrethroids and the interaction with mosquito P450s that function as monooxygenases in metabolic resistance, to predict cross-resistance liabilities in vivo. […] A low percentage depletion indicates low metabolism of the pyrethroid, which means that it may be less vulnerable to resistance mediated by P450s.
The values for percentage depletion (metabolism) of each pyrethroid by three of the enzymes CYP6M2, CYP6P3 and CYP6P9a, which were expressed in a single plasmid construct, were also extracted from the same sources and used for the comparative analysis.

[2] = system: An. funestus strain, FUMOZ-R; set-up: method as in PMID 26930058; details: strain with upregulated P450 levels without any target-site mutations; ref [47]; cited from earlier work
CYP6M2 = details: Incubation time 2h; mean ± SD; ref [38], [41]; cited from earlier work
CYP6P3 [3] = details: Incubation time 2h; mean ± SD; ref [38], [41]; cited from earlier work
CYP6P9a [4] = details: Incubation time 2h; mean ± SD; ref [38], [41]; cited from earlier work
Anopheles arabiensis = details: F0, larval collection, Sudan, WHO Bioassay 1998, ref Abdalla H et al. Parasites Vectors. 2014;7:213, cited from earlier work
CYP6Z3 = molecular target: T1, CYP6Z3 (Anopheles gambiae, UniProt Q86LT6, H411Y/S209G/W396L); experiment: Inhibition screening of pyrethroids, diethoxyfluorescein, CYP6Z3; type: biochemical
T1 sequence (Q86LT6 1-492 S209G/W396L/H411Y): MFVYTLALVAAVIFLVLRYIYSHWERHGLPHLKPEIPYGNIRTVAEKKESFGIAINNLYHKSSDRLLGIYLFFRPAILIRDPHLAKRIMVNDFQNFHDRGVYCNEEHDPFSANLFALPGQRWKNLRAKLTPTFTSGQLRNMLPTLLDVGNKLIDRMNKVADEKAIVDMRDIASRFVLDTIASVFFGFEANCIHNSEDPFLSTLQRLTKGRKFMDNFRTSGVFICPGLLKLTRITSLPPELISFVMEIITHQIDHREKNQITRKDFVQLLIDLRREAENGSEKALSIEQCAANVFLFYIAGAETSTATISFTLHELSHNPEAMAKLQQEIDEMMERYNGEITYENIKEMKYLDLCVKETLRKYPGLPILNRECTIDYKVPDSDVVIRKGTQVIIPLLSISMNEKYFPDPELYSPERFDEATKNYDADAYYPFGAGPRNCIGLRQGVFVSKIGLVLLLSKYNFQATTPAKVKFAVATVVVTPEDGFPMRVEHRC
T1 sequence (Q86QH5 1-679 partner): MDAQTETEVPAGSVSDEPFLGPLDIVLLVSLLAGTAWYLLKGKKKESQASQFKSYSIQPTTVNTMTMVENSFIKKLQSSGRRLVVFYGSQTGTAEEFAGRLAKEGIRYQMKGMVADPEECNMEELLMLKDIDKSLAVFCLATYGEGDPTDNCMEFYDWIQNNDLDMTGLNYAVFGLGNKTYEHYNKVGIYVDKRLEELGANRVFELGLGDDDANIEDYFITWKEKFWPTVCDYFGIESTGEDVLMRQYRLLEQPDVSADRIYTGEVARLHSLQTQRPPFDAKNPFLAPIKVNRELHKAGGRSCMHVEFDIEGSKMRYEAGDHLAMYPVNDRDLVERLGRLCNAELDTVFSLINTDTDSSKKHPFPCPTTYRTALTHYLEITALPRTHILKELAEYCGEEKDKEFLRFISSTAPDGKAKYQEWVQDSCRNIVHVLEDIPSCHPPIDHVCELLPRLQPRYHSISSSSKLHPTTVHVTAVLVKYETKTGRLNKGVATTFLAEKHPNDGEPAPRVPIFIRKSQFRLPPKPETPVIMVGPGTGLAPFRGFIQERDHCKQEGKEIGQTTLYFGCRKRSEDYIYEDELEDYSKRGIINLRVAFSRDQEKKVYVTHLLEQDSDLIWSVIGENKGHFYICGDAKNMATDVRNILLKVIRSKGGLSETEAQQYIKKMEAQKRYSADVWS
Excerpt: as §1, with “Cytochrome P450 inhibition assays using fluorogenic probe substrates have become commonplace in drug discovery screening cascades and are a rapid method of screening for insecticide interactions with mosquito P450s to predict insecticide binding, metabolism, cross-resistance and synergism. In” for “In”
(§2) In addition, inhibition activity data for these pyrethroids exposed to CYP6Z3 from the An. gambiae Kisumu strain were also generated (Additional file 1).
1. Preparation of An. gambiae CYP6Z3 and cloning
Total RNA was extracted with Arcturus PicoPure Kit (Applied Biosystems, USA) from ten adult An. gambiae mosquitoes from the Kisumu strain [1]. Complementary DNA was prepared using Superscript III (Invitrogen) with an oligo (dT)20 primer and used as a template for amplifying full -length AgCyp6z3 with KOD DNA polymerase (Merk Chemicals) . The gene-specific primers used in these high -fidelity PCRs (Table S1) were designed according to the reference An. gambiae PEST CYP6Z3 genome sequence (Accession number AY193727) The PCR product was ligated into pGEM T-easy vector (Promega) and sequenced on both strands. Consistent with the high frequency of polymorphism in An. gambiae P450s [2](Martin Nature Ref) there were 36 single nucleotide polymorphism (SNPs) compared with the reference sequence, of which three produced amino acid changes, S209G, W396L, and H411Y. For expression, the ompA leader sequence (ompA) was engineered onto the amino - terminus of the AgCyp6z3 gene to direct the P450 into the E. coli […] during expression as previously described. The ompA-leader was fused to AgCyp6z3 cDNA in frame with AgCyp6z3 initiation codon by fusion PCR using High fidelity Phusion polymerase (Scientific). The ompA AgCyp6z3 fusion was flanked at the 5′ and 3′ ends with NdeI and EcoR1, respectively for ligation into NdeI/EcoRI linearised pB13 (pCWori+).
Table S1. Primers used for amplification of CYP6Z3 and in vitro functional characterisation […]
ompA+2 Forward […]
ompA+2 CYP6Z3 fusion […]
2. Preparation of membranes expressing P450 and AgCPR
To express functional P450, AgCyp6z3 cloned into pB13 plasmid was co-transformed into E. coli JM109 cells with An. gambiae NADPH-cytochrome P450 reductase (AgCPR-pACYC). The P450 and the AgCPR were previously fused with ompA and pelB leader sequences respectively to direct the expressed proteins to the inner bacterial periplasm in order to form functional monooxygenase complex. For P450 production, 200 mL E. coli cultures in Terrific Broth were incubated at 21°C with shaking at 120 RPM for 18–24 h after induction with 1 mM IPTG. Following expression, E. coli membranes containing CYP6Z3 were isolated and P450 and AgCPR content measured as previously described. Samples were stored in aliquots of 100 µL at −80°C. An. gambiae cytochrome b5 was prepared as described previously to supplement enzyme reactions at an 8:1 M ratio, b5: P450 [4].
3. Inhibition screening of pyrethroids.
Inhibition screening of pyrethroid inhibitors and IC50 calculations carried out according Yunta et al. […]

CYP6Z2 = molecular target: T2, CYP6Z2 (Anopheles gambiae, UniProt Q7PNB5); experiment: Inhibition screening of pyrethroids, diethoxyfluorescein, CYP6Z2; type: biochemical
T2 sequence (Q7PNB5 1-492): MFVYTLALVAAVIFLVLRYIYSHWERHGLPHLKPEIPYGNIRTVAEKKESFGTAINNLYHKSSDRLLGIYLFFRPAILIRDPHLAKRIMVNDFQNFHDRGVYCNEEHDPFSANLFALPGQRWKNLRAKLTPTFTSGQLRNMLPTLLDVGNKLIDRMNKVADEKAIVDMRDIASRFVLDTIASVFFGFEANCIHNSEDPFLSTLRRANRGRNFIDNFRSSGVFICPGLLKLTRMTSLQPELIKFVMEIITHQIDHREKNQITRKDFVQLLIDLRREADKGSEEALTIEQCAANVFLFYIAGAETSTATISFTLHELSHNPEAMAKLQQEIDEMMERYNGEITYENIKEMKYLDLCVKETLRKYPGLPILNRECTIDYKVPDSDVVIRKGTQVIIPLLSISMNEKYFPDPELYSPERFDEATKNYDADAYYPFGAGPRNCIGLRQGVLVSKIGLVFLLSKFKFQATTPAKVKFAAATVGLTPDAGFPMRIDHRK
T2 sequence (Q86QH5 1-679 partner): T1 sequence (Q86QH5 1-679 partner)

[5] = system: P450 panel (CYP6M2, CYP6P3, CYP6P9a, CYP6P2, CYP9J5, CYP6Z3, CYP6Z2); experiment: P450 inhibition, whole P450 panel (mean across P450s); type: biochemical, Anopheles gambiae and An. funestus; details: Anopheles gambiae and Anopheles funestus
Excerpt: as §1, with “Cytochrome P450 inhibition assays using fluorogenic probe substrates have become commonplace in drug discovery screening cascades and are a rapid method of screening for insecticide interactions with mosquito P450s to predict insecticide binding, metabolism, cross-resistance and synergism. In” for “In”
as §2

CYP6P3 [6] = details: read-out: IC50 CYP6P3; inhibition of diethoxyfluorescein metabolism; footnote b; ref Yunta et al. 2019[10]; cited from earlier work
CYP6P9a [7] = details: read-out: IC50 CYP6P9a; inhibition of diethoxyfluorescein metabolism; footnote b; ref Yunta et al. 2019[10]; cited from earlier work
CYP6P2 = details: read-out: IC50 CYP6P2; inhibition of diethoxyfluorescein metabolism; footnote b; ref Yunta et al. 2019[10]; cited from earlier work
CYP9J5 = details: read-out: IC50 CYP9J5; inhibition of diethoxyfluorescein metabolism; footnote b; ref Yunta et al. 2019[10]; cited from earlier work
Gambiae Complex = details: ID 100156; F0, larval collection, 5/2009-4/2010, Chano, Ethiopia; WHO Bioassay 1998; ref Massebo F et al. Parasites Vectors. 2013;6; cited from earlier work

Row | SMILES | effectiveness with or without piperonyl butoxide (PBO), in words [2] | mortality (Anopheles arabiensis; 10/2009-11/2009, El Managil) | mortality (Anopheles arabiensis; 10/2009-11/2009, Rufaa) | mortality (Anopheles arabiensis; 10/2009-11/2009, Wad El Hadad) | mortality (Anopheles arabiensis; 10/2010-11/2010, Wad El Hadad) | mortality (Anopheles arabiensis; 10/2010-11/2010, Wad Medani) | also measured
1 | CC1(C)C(C=C(Cl)Cl)C1C(=O)OC(C#N)c1cccc(Oc2ccccc2)c1 (centres unmarked) [Cypermethrin] | only effective when partnered with PBO | – | – | – | – | – | % Insecticide depletion Mean across P450s [1]: 74.9 ± 33.3%; % Insecticide depletion CYP6M2 (CYP6M2): 36.8 ± 1.8%; % Insecticide depletion CYP6P3 (CYP6P3 [3]): 98.4 ± 0.1%; % Insecticide depletion CYP6P9a (CYP6P9a [4]): 89.5 ± 2.7%
2 | Clc1ccc(C(c2ccc(Cl)cc2)C(Cl)(Cl)Cl)cc1 [DDT, dichlorodiphenyltrichloroethane] | – | 93 | 58 | 74 | 69 | 70 | –
3 | CNC(=O)Oc1cccc2c1OC(C)(C)O2 [bend, bendiocarb] | – | 100 | 100 | 100 | 100 | 100 | –
4 | COP(=S)(OC)Oc1ccc([N+](=O)[O-])c(C)c1 [feni, fenitrothion] | – | 100 | 100 | 100 | 100 | 100 | –
5 | CC1(C)C(C=C(Cl)Cl)C1C(=O)OC(C#N)c1ccc(F)c(Oc2ccccc2)c1 (centres unmarked) [ß-cyfluthrin] | only effective when partnered with PBO | – | – | – | – | – | –
6 | CC1(C)C(C=C(Cl)Cl)C1C(=O)OC(C#N)c1cccc(Oc2ccccc2)c1 (stereo not drawn) [⍺-cypermethrin, α-cypermethrin] | – | – | – | – | – | – | IC50 (CYP6Z3): 4.4 µM; IC50 (CYP6Z2): 8.6 µM; IC50 [5]: 6.4 µM; IC50 (CYP6P3 [6]): 2.6 µM; IC50 (CYP6P9a [7]): 4.2 µM; IC50 (CYP6P2): 9.8 µM; IC50 (CYP9J5): 13.5 µM; mortality (Gambiae Complex): 50

Reference: PMC7893915, “Assessing cross-resistance within the pyrethroids in terms of their interactions with key cytochrome P450 enzymes and resistance in vector populations” (Parasites & Vectors, 2021)
